In this test the target is GSK3β (Homo sapiens, UniProt P49841). Briefly: Inhibitory activity against GSK3β (33P-ATP phosphorylation of prephosphorylated GS1 peptide). It is filed as biochemical. The conditions noted are these: protocol 3: 7.5 μM GS1 peptide, 10 μM ATP, 50 mM Hepes pH 7.2, one hour at room temperature. Here is the method:
Four different protocols can be used.
In a first protocol: 7.5 μM of prephosphorylated GS1 peptide and 10 μM ATP (containing 300,000 cpm of ^33P-ATP) were incubated in 25 mM Tris-HCl, pH 7.5, 0.6 mM DTT, 6 mM MgCl2, 0.6 mM EGTA, 0.05 mg/ml BSA buffer for 1 hour at room temperature in the presence of GSK3beta (total reaction volume: 100 microliters).
In a second protocol: 4.1 μM of prephosphorylated GS1 peptide and 42 μM ATP (containing 260,000 cpm ^33P-ATP) were incubated in 80 mM Mes-NaOH, pH 6.5, 1 mM Mg acetate, 0.5 mM EGTA, 5 mM 2-mercaptoethanol, 0.02% Tween 20, 10% glycerol buffer for 2 hours at room temperature in the presence of GSK3beta.
In a third protocol: 7.5 μM of prephosphorylated GS1 peptide and 10 μM ATP (containing 300,000 cpm of ^33P-ATP) were incubated in 50 mM Hepes, pH 7.2, 1 mM DTT, 1 mM MgCl2, 1 mM EGTA, 0.01% Tween 20 buffer for one hour at room temperature in the presence of GSK3beta (total reaction volume: 100 microliters). […]
The reaction was stopped with 100 microliters of a solution made of 25 g polyphosphoric acid (85% P2O5), 126 ml 85% H3PO4, H2O to 500 ml and then diluted to 1:100 before use. […] Incorporated ^33P radioactivity was determined by liquid scintillation spectrometry. […]

Molecules are shown by their SMILES.

Chain of GSK3β (P49841 whole entry): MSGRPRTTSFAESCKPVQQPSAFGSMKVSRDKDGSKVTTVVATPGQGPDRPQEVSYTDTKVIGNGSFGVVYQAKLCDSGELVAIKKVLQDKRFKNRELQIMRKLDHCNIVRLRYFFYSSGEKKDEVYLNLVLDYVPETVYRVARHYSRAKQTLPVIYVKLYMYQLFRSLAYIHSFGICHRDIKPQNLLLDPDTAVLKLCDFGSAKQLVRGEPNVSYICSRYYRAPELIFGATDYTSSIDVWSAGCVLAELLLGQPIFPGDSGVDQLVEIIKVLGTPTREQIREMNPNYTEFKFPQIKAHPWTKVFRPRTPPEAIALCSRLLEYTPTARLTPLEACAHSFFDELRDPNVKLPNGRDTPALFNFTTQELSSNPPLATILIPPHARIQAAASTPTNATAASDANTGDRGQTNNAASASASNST

For the compound `[O-][n+]1cc(NCC(O)c2ccccc2)nc(-c2ccncc2)c1` (racemic) [compound 2, (+/−)2-[(4-oxido-6-pyridin-4-ylpyrazin-2-yl)amino]-1-phenylethanol], the half-inhibitory concentration (IC50) – broadly, the midpoint of a concentration-inhibition curve – was 506 nM.

These data come from patent US8202874B2, “Substituted N-oxide pyrazine derivatives” (Mitsubishi Tanabe Pharma Corporation, priority 2008, dated 2012).
